In US7635675B2, “Micro-particle fatty acid salt solid dosage formulations for therapeutic agents” (Biocon Limited, priority 2003, dated 2009):

Test: USP dissolution test of fatty acid salts released from tablets and capsules
Type: physicochemical
Details: tablet formulations where the fatty acids have been milled to optimum particle size (FIGS. 3-8); USP apparatus 2, 50 rpm, 500 mL pH 7.4 phosphate buffer
Procedure: The formulations of the invention preferably have a high dissolution rate. The dissolution rate can be determined as follows: Use USP dissolution apparatus 2 (paddles) at 50 rpm with 500 mL of pH 7.4 phosphate buffer.
USP 26, <711> DISSOLUTION Test Description:
This test is provided to determine compliance with the dissolution requirements where stated in the individual monograph for a tablet or capsule dosage form. Of the types of apparatus described therein, use apparatus 2. […] Where water or a medium with a pH of less than 6.8 is specified as the Medium in the individual monograph, the same Medium specified may be used with the addition of purified pepsin that results in an activity of 750,000 Units or less per 1000 mL. For media with a pH of 6.8 or greater, pancreatin can be added to produce not more than 1750 USP Units of protease activity per 1000 mL. USP Reference Standards <11> (Dissolution Calibrator, Disintegrating). (Dissolution Calibrator, nondisintegrating) are used to calibrate the equipment.
Apparatus 2: The assembly consists of the following: a covered vessel made of glass or other inert, transparent material; a motor; a metallic drive shaft; and a stirring element. The vessel is partially immersed in a suitable water bath of any convenient size or placed in a heating jacket. […]

Structure (SMILES) | dissolution (release) of fatty acid salt from tablet formulations
CCCCCCCCCCCC(=O)[O-].[Na+] [lauric acid sodium salt] | readily released
CCCCCCCCCC(=O)[O-].[Na+] [capric acid sodium salt] | readily released
